Source: patent US20260130917A1, “ANTIVIRAL COMPOSITION FOR CORONAVIRUS OR INFLUENZA VIRUS, USING NATURAL PRODUCTS, AND USE THEREOF” (priority 2022, published 2026)

Key:
[1] = system: SARS-CoV-2 (βCoV/KOR/KCDC03/2020); test: microbe, parasite or virus in culture; conditions: Severe acute respiratory syndrome coronavirus 2, Vero
in vitro [2] = conditions: human
in vitro [3] = conditions: monkey
[4] = system: SARS-CoV-2 (βCoV/KOR/KCDC03/2020); test: in vitro; conditions: human
[5] = system: SARS-CoV-2 (βCoV/KOR/KCDC03/2020); test: microbe, parasite or virus in culture; conditions: Severe acute respiratory syndrome coronavirus 2, Calu-3
[6] = system: SARS-CoV-2 (βCoV/KOR/KCDC03/2020); test: in vitro; conditions: monkey
[7] = system: influenza A H1N1 A/California/07/2009; test: Antiviral activity against influenza virus in MDCK cells; format: cell-based, influenza A virus; conditions: concentration of 6.3 μM
[8] = system: influenza B B/Brisbane/60/2008; test: as above; format: cell-based, influenza B virus; conditions: concentration of 6.3 μM
[9] = system: SARS-CoV-2 βCoV/Korea/KCDC03/2020, NCCP43326; test: Efficacy in SARS-CoV-2 infected hACE2 transgenic mice (lung virus titer and viral RNA); format: in vivo; conditions: orally at 50 mg/kg, once a day three times, lungs on third day
[10] = system: influenza A H3N2 A/Hong Kong/4801/2014; test: Antiviral activity against influenza virus in MDCK cells; format: cell-based, influenza A virus; conditions: concentration of 6.3 μM
[11] = system: SARS-CoV-2 spike pseudovirus particles; test: organism not typed; format: cell-based
[12] = system: SARS-CoV-2 virus (B CoV/Korea/KCDC03/2020, NCCP43326); test: Time-of-addition assay in Vero cells; format: cell-based; conditions: 50 μM, MOI 3

| Compound | IC50 [1] [µM] | CC50 (in vitro [3]) [µM] | selectivity ratio [6] | further results |
| --- | --- | --- | --- | --- |
| CCOC(=O)c1c(C(C)(C)C)oc2ccc(OC(=O)c3ccc(OC)cc3)cc12 [MolPort-000-424-809, Ethyl 2-tert-butyl-5-(4-methoxybenzoyloxy)-1-benzofuran-3-carboxylate] | 31.2 | > 100 |  | CC50 (in vitro [2]): > 100 µM; selectivity ratio [4]: 1.97; IC50 [5]: 50.7 µM |
| c1ccc(Oc2cccc(OCCCN3CCCCC3c3cccnc3)c2)cc1 (stereo not shown) [MolPort-000-829-850, 3-{1-[3-(3-phenoxyphenoxy)propyl]piperidin-2-yl}pyridine and oxalic acid] | 15.6 | 32.4 | 2.08 |  |
| CCCCCCCC/C=C\CCCCCCCC(=O)O [MolPort-001-788-274, (9Z)-octadec-9-enoic acid] | 67.9 | > 100 |  |  |
| CCCCC/C=C\C/C=C\CCCCCCCC(=O)O [MolPort-001-788-459, (9Z,12Z)-octadeca-9,12-dienoic acid] | 37.6 | > 100 |  |  |
| CC(C)(C)c1cc(CCCOC(=O)CNc2ccccc2)cc(C(C)(C)C)c1O [MolPort-002-151-168, 3-(3,5-di-tert-butyl-4-hydroxyphenyl)propyl 2-(phenylamino)acetate] | 23.5 | > 100 |  | CC50 (in vitro [2]): > 100 µM; selectivity ratio [4]: 1.65; IC50 [5]: 60.7 µM |
| CC(C)(C)c1cc(CCCOC(=O)CNC2CCCCC2)cc(C(C)(C)C)c1O [MolPort-002-152-403, 3-(3,5-di-tert-butyl-4-hydroxyphenyl)propyl 2-(cyclohexylamino)acetate] | 32.5 | 56.2 | 1.73 |  |
| CCCCCCCCC1OCC(OC(=O)c2ccc(OC)cc2)CO1 (stereo not shown) [MolPort-002-515-990, 2-octyl-1,3-dioxan-5-yl 4-methoxybenzoate] | 24.6 | > 100 |  | CC50 (in vitro [2]): > 100 µM; selectivity ratio [4]: 1.92; IC50 [5]: 52.2 µM |
| O=C(OC[C@@H]1CCCN2CCCC[C@H]12)c1ccc(CSCc2ccccc2)o1 [MolPort-002-520-573, [(1R,9aR)-octahydro-1H-quinolizin-1-yl]methyl 5-[(benzylsulfanyl)methyl]furan-2-carboxylate] | 28.5 | 58 | 2.04 |  |
| CCCc1cc2c3c(c(=O)oc2cc1OC(=O)CNC(=O)OCc1ccccc1)CCC3 [MolPort-002-526-563, 4-oxo-8-propyl-1H,2H,3H,4H-cyclopenta[c]chromen-7-yl 2-{[(benzyloxy)carbonyl]amino}acetate] | 28.7 | 33.4 | 1.16 |  |
| O=C(NCCc1ccccc1)c1cc2c([nH]c3ccccc32)c(CCc2ccccc2)n1 [MolPort-002-526-760, N,1-bis(2-phenylethyl)-9H-pyrido[3,4-b]indole-3-carboxamide] | 25.8 | 42.2 | 1.63 |  |
| CCCCCCCc1ccc(C(=O)Oc2ccc(C(=O)O)cc2)cc1 [MolPort-003-709-991, 4-(4-heptylbenzoyloxy)benzoic acid] | 43.3 | > 100 |  |  |
| CCCCCCCOC(=O)c1ccc(OC(=O)c2cccnc2)cc1 [MolPort-003-711-757, 4-[(heptyloxy)carbonyl]phenyl pyridine-3-carboxylate] | 24.3 | 49 | 2.02 |  |
| CCCCCCCc1ccc(C(=O)Oc2ccc(SC)cc2)cc1 [MolPort-003-713-147, 4-(methylsulfanyl)phenyl 4-heptylbenzoate] | 94.4 | > 100 |  |  |
| CCCCCCCOC(=O)c1ccc(OC(=O)c2cncc(Br)c2)cc1 [MolPort-003-713-431, 4-[(heptyloxy)carbonyl]phenyl 5-bromopyridine-3-carboxylate] | 57.5 | > 100 |  |  |
| CC/C=C\C/C=C\C/C=C\C/C=C\C/C=C\C/C=C\CCC(=O)O [MolPort-003-932-890, (4Z,7Z,10Z,13Z,16Z,19Z)-docosa-4,7,10,13,16,19-hexaenoic acid] | 58.6 | 62.4 | 1.06 |  |
| CC/C=C\C/C=C\C/C=C\C/C=C\C/C=C\CCCC(=O)O [MolPort-003-933-180, (5Z,8Z,11Z,14Z,17Z)-icosa-5,8,11,14,17-pentaenoic acid] | 41.8 | 70.5 | 1.69 |  |
| CC/C=C\C/C=C\C/C=C\CCCCCCCC(=O)O [MolPort-003-937-817, (9Z,12Z,15Z)-octadeca-9,12,15-trienoic acid] | 58.6 | > 100 | 1.71 |  |
| CCCCCC[C@@H](O)C/C=C\CCCCCCCC(=O)O [MolPort-003-939-239, (9Z,12R)-12-hydroxyoctadec-9-enoic acid] | 60.5 | > 100 |  |  |
| CCCCCCCCCCC#CC#CCCCCCCCCC(=O)O [MolPort-003-939-688, tricosa-10,12-diynoic acid] | 29.9 | > 100 |  | CC50 (in vitro [2]): > 100 µM; selectivity ratio [4]: 1.19; IC50 [5]: 83.8 µM |
| O=C(C[C@@H]1CCNC[C@@H]1Cc1cc(COc2ccccc2)on1)NCc1ccc(F)cc1 [MolPort-005-947-745, N-[(4-fluorophenyl)methyl]-2-[(3R,4S)-3-{[5-(phenoxymethyl)-1,2-oxazol-3-yl]methyl}piperidin-4-yl]acetamide] | 24.3 | 34.7 | 1.43 |  |
| O=C(CCCNC(=O)c1cc2ccccc2o1)NCCc1c[nH]c2ccccc12 [MolPort-005-974-761, 4-[(1-benzofuran-2-yl)formamido]-N-[2-(1H-indol-3-yl)ethyl]butanamide] | 71.3 | > 100 |  |  |
| CCCCCOc1cccc(/C=C/C23N=C(O)CCN2c2ccccc2C3(C)C)c1 (stereo not shown) [MolPort-005-980-235, 10,10-dimethyl-10a-[(1E)-2-[3-(pentyloxy)phenyl]ethenyl]-3H,4H,10H,10aH-pyrimido[1,2-a]indol-2-ol] | 8.49 | > 100 |  | antiviral activity [7]: about 90%; antiviral activity [8]: about 50%; viral RNA in the lungs [9]: decreased at a statistically significant level; viral titer (TCID50) in the lungs [9]: tended to decrease; antiviral activity [10]: about 90%; IC50 ([11]; 48 h): 27.5 µM; inhibition at 50 µM ([11]; Severe acute respiratory syndrome coronavirus 2, read-out: inhibition of intracellular entry of the SARS-CoV-2 virus): ~90%; selectivity ratio [4]: 6.42; virus infection pattern ([12]; treated 1 hour after virus infection): virus infection could not be prevented; virus infection pattern ([12]; treated 1 hour before virus infection or simultaneously with the virus): virus infection did not occur; IC50 [5]: 15.6 µM |
| CC/C=C/C/C=C/C/C=C/C/C=C/C/C=C/C/C=C\CCC(=O)O [MolPort-008-266-638, (4Z,7E,10E,13E,16E,19E)-docosa-4,7,10,13,16,19-hexaenoic acid] | 28.2 | 36.2 | 1.29 |  |
| CC(C)CCC(CCNCc1ccc(OC(C)C)cc1)C1CCOC(C)(C)C1 (stereo not shown) [MolPort-009-758-577, [3-(2,2-dimethyloxan-4-yl)-6-methylheptyl]({[4-(propan-2-yloxy)phenyl]methyl})amine and oxalic acid] | 7.94 | 14.5 | 1.83 |  |
| O=C(NC[C@@H]1CCCN2CCCC[C@H]12)c1cccc(-c2cc3ccccc3oc2=O)c1 [MolPort-027-564-039, N-{[(1S,9aR)-octahydro-1H-quinolizin-1-yl]methyl}-3-(2-oxo-2H-chromen-3-yl)benzamide] | 23.3 | > 100 |  |  |
| O=C(Cn1ccc2ccc(OCc3ccccc3)cc21)NC[C@@H]1CCCN2CCCC[C@H]12 [MolPort-027-564-475, N-{[(1S,9aR)-octahydro-1H-quinolizin-1-yl]methyl}-2-[6-(benzyloxy)-1H-indol-1-yl]acetamide] | 18.5 | 34.3 | 1.85 |  |
